The subject of assay [1] is U2OS cells expressing HaloTag fusion proteins. The experiment in a line: Live-cell labeling of HaloTag fusions at different subcellular locations, Airyscan microscopy. In kind it is cell-based. Particulars: 100 nM, 1 h. As for the experimental part: Fig. 4. Evaluation of live-cell labeling of biotin–rhodamine–HaloTag ligands 13HTL–16HTL. Airyscan fluorescence microscopy images of U2OS cells expressing HaloTag fusion proteins at different subcellular locations, incubated with 100 nM 13HTL–16HTL for 1 h followed by fixation, counterstaining with Hoechst 33342 (gray) and imaging. Columns indicate different HaloTag fusion proteins: (A–D) Cell-surface-localized HaloTag–PDGFR; (E–H) Outer mitochondrial membrane-localized HaloTag–TOMM20; (I–L) Endoplasmic reticulum membrane-localized HaloTag–Sec61β; (M–P) Nucleus-localized HaloTag–histone H2B. Rows indicate different ligands: (A,E,I, and M) biotin–JF549–HaloTag ligand (13HTL; yellow); (B, F, J, and N) biotin–JF608–HaloTag ligand (14HTL; red); (C, G, K, and O) biotin–JF646–HaloTag ligand (15HTL; magenta); (D, H, L, and P) biotin–JF635–HaloTag ligand (16HTL; magenta). […]
indicated in the product information12 and from a previous publication.13 For labeling with biotin-JF-HaloTag ligands 13HTL–16HTL, cells were incubated with 100 nM or 1 µM ligand for 0.5–2 h at 37 °C. […] For quantitation of labeling intensity, ROIs were drawn surrounding individual HEK cells, and the average fluorescence ratio (JF/msGFP) from multiple cells in each condition was measured; no background subtraction was necessary.
U2OS cell culture, labeling, and fluorescence microscopy. […]

Another assay addresses T1, HaloTag protein (Rhodococcus rhodochrous, UniProt P0A3G2, A155T/A167V/A172T/A224E/C128F/C176G/D78G/E160K/E257K/H272N/K175M/K195N/L47V/L88M/N227D/S58T/T264A/Y273L/Y87F).
T1 construct: made in house
As to the kind of experiment: Absorbance/fluorescence increase upon HaloTag binding. It is filed as biochemical. The conditions noted are these: HaloTag conjugate vs free ligand. As for the experimental part: HaloTag protein purification. The bacterial expression vector pRSET-A (Invitrogen) was used to recombinantly express HaloTag (HT7; Promega).1 The soluble 6×His-Tagged HaloTag protein was affinity purified by immobilized metal affinity chromatography (IMAC) on a 5 -mL Fast Flow HiTrap Sepharose 6 column (Cytiva) with a 0–200 mM imidazole elution gradient using an Avant Protein Purification System (ÄKTA). A280 peak fractions were pooled, concentrated by a spin concentrator, and dialyzed 3× into tris-buffered saline (TBS). The amino acid sequence of HaloTag (HT7) expressed from pRSET-A is noted below; the annotated DNA and amino acid sequences […]
Spectroscopy of HaloTag ligands and HaloTag conjugates. […]
± 2 °C). Absorption spectra were recorded on a Cary Model 100 spectrometer (Agilent) using 1-cm path length 1.0-mL quartz microcuvettes from Starna Cells. Fluorescence spectra were recorded on a Cary Eclipse fluorometer (Varian) using 1-cm path length 3.5-mL quartz cuvettes (Starna Cells). […] An aliquot of HaloTag protein (1.5 equiv) was added, and the resulting mixture was incubated until a consistent absorbance signal was observed (60–120 min).
To measure the fold-increase of absorbance upon HaloTag binding, a “no HaloTag” control experiment was performed where an equivalent volume of TBS blank was added in place of the protein. […]

The structures appear in SMILES notation.

T1 sequence (P0A3G2 other isoform, or with tags, fused parts or gaps with the stated changes): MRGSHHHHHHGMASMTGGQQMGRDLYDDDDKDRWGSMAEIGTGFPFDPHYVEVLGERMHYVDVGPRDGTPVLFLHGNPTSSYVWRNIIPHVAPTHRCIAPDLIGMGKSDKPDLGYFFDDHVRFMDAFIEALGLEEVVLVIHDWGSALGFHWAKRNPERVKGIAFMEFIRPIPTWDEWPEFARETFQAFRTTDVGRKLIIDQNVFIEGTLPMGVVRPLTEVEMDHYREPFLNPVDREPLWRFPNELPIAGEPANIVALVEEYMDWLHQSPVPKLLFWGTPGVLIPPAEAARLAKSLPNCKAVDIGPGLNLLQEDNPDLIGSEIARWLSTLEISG

Consider `O=C(CCCCC1SCC2NC(=O)NC21)NCCOCCOCCNC(=O)C1C[N+](=c2ccc3c(-c4cc(C(=O)NCCOCCOCCCCCCCl)ccc4C(=O)[O-])c4ccc(N5CCC5)cc4oc-3c2)C1` (stereo not drawn) [13HTL, biotin–JF549–HaloTag ligand], for which the “labeling of HaloTag fusions (PDGFR, TOMM20, Sec61β, histone H2B)” value in assay [1] is “low intracellular signals, only labeling the cell-surface-localized PDGFR–HaloTag fusion”. Regarding `C[Si]1(C)C2=CC(=[N+]3CC(C(=O)NCCOCCOCCNC(=O)CCCC[C@@H]4SC[C@@H]5NC(=O)N[C@@H]54)C3)C=CC2=C(c2cc(C(=O)NCCOCCOCCCCCCCl)ccc2C(=O)[O-])c2ccc(N3CCC3)cc21` (stereo partly drawn) [15HTL, biotin–JF646–HaloTag ligand], the “fluorogenicity upon HaloTag binding” value at HaloTag protein was 2.9 fold. Still for that read-out and setting: next, `C[Si]1(C)C2=CC(=[N+]3CC(F)(C(=O)NCCOCCOCCNC(=O)CCCC[C@@H]4SC[C@@H]5NC(=O)N[C@@H]54)C3)C=CC2=C(c2cc(C(=O)NCCOCCOCCCCCCCl)ccc2C(=O)[O-])c2ccc(N3CC(F)C3)cc21` (stereo partly drawn) [16HTL, biotin–JF635–HaloTag ligand]: 17.6 fold.
